Key:
hiPSC-CM syncytia = test: Proarrhythmia screen in 96 well plates using CiPA compounds (voltage sensitive dye, optical mapping); format: cell-based, human; settings: hiPSC-CM syncytia on Matrix Plus, 10 × ETPC, 30 min exposure
Method: MatrixPlus coated 6 or 96 well plates were stored at 4 °C, transferred to room temperature on the day of cell plating and rehydrated (30 min) in Hank’s Balanced Salt Solution (HBSS). HBSS was aspirated and hiPSC-CMs were plated essentially as before[17],[22]. Briefly, commercially available iCell[2] Cardiomyocytes (Cellular Dynamics International) were thawed at 37 °C for 4 min, diluted in 7 ml of EB20 medium supplemented with blebbistatin (DMEM:F12, 20%FBS, 0.1% glutamine, 0.2%NEAA, 25 µM blebbistatin) and centrifuged (1000 rpm for 5 min) for removal of cryoprotectants. All work with human pluripotent stem cell derived cardiomyocytes was performed with approval from the University of Michigan Human Pluripotent Stem Cell Research Oversight committee (HPSCRO). All methods with human samples were handled following NIH guidelines. Cells from a single vial were diluted in EB20 with blebbistatin ([…]) and split evenly for plating on Matrigel, CELLvo Matrix and MatrixPLUS. Total amount of cells per functional syncytia varied depending on plate format, six well plates received 150,000 cells in the center of 1 cm diameter of matrix; and 96 well plates received 75,000 cells per well. Lower density plating (25,000 cells per well) was also used to more clearly observe cellular shape. hiPSC-CMs were maintained in cardiomyocyte EB20 supplemented with blebbistatin for 2 days before culture in RPMI supplemented with B27 for another 5 days[1].
(§1) Proarrhythmia screening assay was performed using voltage sensitive dye (VSD, FluoVolt) and high speed CCD camera (200fps)[24]. […] Supplemental Tables 1–3 outline each drug tested, the CiPA risk classification, the concentrations used and the clinical recorded Cmax for each drug to provide clinical reference for drug concentrations. Cells were then submitted to optical mapping for detection of voltage changes recorded with the CCD camera via selection of appropriate light wavelength (filter 515 nm, green light, Chroma). Movies were analyzed with custom made analysis software (Scroll) for determination of action potential duration and conduction velocity as described before[22],[24],[25].
Supplemental tables 1-3 outline each drug tested, the CiPA risk classification, the concentrations used and the clinical recorded Cmax for each drug to provide clinical reference for drug concentrations. hiPSC-CM monolayers were then submitted to optical mapping for detection of membrane voltage changes recorded with the CCD camera via selection of appropriate light wavelength (filter 515 nm, green light, Chroma). Movies were analyzed with custom made analysis software (Scroll) for determination of action potential duration and conduction velocity where appropriate.

hiPSC-CM monolayers = format: cell-based, human
Method: HBSS was aspirated and hiPSC-CMs were plated essentially as before[17],[22]. Briefly, commercially available iCell[2] Cardiomyocytes (Cellular Dynamics International) were thawed at 37 °C for 4 min, diluted in 7 ml of EB20 medium supplemented with blebbistatin (DMEM:F12, 20%FBS, 0.1% glutamine, 0.2%NEAA, 25 µM blebbistatin) and centrifuged (1000 rpm for 5 min) for removal of cryoprotectants. All work with human pluripotent stem cell derived cardiomyocytes was performed with approval from the University of Michigan Human Pluripotent Stem Cell Research Oversight committee (HPSCRO). All methods with human samples were handled following NIH guidelines. […]
as §1

Structure (SMILES) | Wells with arrhythmias (hiPSC-CM syncytia) | Appearance of arrhythmias of TdP (hiPSC-CM monolayers) | Change of beat rate or conduction velocity (hiPSC-CM monolayers)
CC(C)COCC(CN(Cc1ccccc1)c1ccccc1)N1CCCC1 (stereo not drawn) [bepridil] | did not yield arrhythmic responses | – | –
CC(C)N(CCC(C(N)=O)(c1ccccc1)c1ccccn1)C(C)C (stereo not drawn) [disopyramide] | 66% | – | –
CN(CCOc1ccc(NS(C)(=O)=O)cc1)CCc1ccc(NS(C)(=O)=O)cc1 [dofetilide] | 83% | – | –
COc1ccccc1OCC(O)CN1CCN(CC(=O)Nc2c(C)cccc2C)CC1 (stereo not drawn) [ranolazine] | did not detect any arrhythmias | did not observe appearance of arrhythmias of TdP | did not significantly alter beat rate or conduction velocity

From paper PMC7643060, “Human perinatal stem cell derived extracellular matrix enables rapid maturation of hiPSC-CM structural and functional phenotypes” (Scientific Reports, 2020)
